Results taken from ChEMBL document CHEMBL2321687, “Identification of a novel arylpiperazine scaffold for fatty acid amide hydrolase inhibition with improved drug disposition properties” (Bioorg Med Chem Lett, 2013).
Calls of active or inactive are those of the source. The rule behind the calls is not given here.

Legend:
[1] = target: T1, Fatty-acid amide hydrolase 1 (Mus musculus, UniProt O08914); assay: Inhibition of FAAH in mouse brain homogenate using [3Hethanolamine]AEA as substrate incubated for 20 mins prior to substrate addition measured after 15 mins by beta counting analysis; assay type: tissue-based
T1 sequence (O08914 whole entry): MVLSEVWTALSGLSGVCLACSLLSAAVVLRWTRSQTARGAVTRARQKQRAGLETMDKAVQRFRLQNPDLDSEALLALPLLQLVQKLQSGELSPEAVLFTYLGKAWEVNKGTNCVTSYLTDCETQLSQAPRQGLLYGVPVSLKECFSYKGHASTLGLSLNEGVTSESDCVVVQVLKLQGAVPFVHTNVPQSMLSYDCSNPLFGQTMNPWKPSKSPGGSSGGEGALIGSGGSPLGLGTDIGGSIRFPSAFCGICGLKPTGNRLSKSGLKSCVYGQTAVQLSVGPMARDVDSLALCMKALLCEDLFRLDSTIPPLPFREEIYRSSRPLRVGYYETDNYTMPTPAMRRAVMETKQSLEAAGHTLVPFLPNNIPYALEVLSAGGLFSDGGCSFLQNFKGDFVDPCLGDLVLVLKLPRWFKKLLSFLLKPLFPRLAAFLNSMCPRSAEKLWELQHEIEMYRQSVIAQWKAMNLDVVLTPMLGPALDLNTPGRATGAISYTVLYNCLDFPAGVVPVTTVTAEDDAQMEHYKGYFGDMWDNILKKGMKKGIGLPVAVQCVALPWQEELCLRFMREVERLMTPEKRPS

[2] = target: Fatty-acid amide hydrolase 1 (Mus musculus) (UniProt O08914); assay: Reversible noncompetitive inhibition of FAAH in mouse brain homogenate using [3Hethanolamine]AEA as substrate incubated for 20 mins prior to dialysis for 18 hrs followed by substrate addition measured after 15 mins; assay type: tissue-based
[3] = target: T2, Fatty-acid amide hydrolase 1 (Homo sapiens, UniProt O00519); assay: Inhibition of human FAAH using [3Hethanolamine]AEA as substrate incubated for 20 mins prior to substrate addition measured after 15 mins by beta counting analysis
T2 sequence (O00519 whole entry): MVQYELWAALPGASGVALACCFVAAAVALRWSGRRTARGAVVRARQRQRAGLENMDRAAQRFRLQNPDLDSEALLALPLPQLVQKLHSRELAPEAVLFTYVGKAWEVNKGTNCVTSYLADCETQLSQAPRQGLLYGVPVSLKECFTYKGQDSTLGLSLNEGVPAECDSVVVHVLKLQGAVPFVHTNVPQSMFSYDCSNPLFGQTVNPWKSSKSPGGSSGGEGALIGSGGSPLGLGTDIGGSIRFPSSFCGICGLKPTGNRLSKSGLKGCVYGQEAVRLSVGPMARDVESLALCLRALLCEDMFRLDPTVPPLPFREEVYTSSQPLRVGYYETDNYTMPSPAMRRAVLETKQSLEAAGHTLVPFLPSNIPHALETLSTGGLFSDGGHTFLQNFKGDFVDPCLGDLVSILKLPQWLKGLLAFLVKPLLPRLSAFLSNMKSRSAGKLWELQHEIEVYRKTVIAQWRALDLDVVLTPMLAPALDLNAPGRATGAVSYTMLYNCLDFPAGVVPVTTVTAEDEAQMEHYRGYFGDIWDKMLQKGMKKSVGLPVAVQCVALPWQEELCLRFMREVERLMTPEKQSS

Ki [1] [nM]	Compound	inhibition [2]	IC50 [3] [nM]	Ki [3] [nM]
> 500	Fc1ccc(OCCCCOc2cccc(N3CCNCC3)c2)cc1			
270	N#Cc1ccn(-c2cccc(N3CCN(CCCCCCc4ccccc4)CC3)c2)c1			

Compound	Ki [1] [nM]	inhibition [2]	IC50 [3] [nM]	Ki [3] [nM]
O=C(NCCCCCCc1ccccc1)Oc1cccc(N2CCNCC2)c1	13	Active	44	26
